Laboratory results reported in ChEMBL document CHEMBL1201862, “PubChem BioAssay data set” (2004).
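Grown in 96-well plates, cells were treated for 48 hours with each compound at five concentrations. Insufficient inhibition: endpoint recorded as highest concentration tested. At the GI50, growth is halved.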 Active and inactive are the calls of the source. Cut-off read from the data, not from the text of the source: active = GI50 up to about 1.1 µM and inactive = higher.

Tests used:
Experiment in all cases: NCI-60 cell line screen, 48 h
[1] = tested on: CAKI-1
[2] = tested on: CCRF-CEM
[3] = tested on: COLO 205
[4] = tested on: EKVX
[5] = tested on: HL-60
[6] = tested on: HT-29
[7] = tested on: Hs-578T
[8] = tested on: LOX IMVI
[9] = tested on: MOLT-4
[10] = tested on: NCI-H460
[11] = tested on: NCI-H522
[12] = tested on: NCI/ADR-RES
[13] = tested on: OVCAR-3
[14] = tested on: OVCAR-8
[15] = tested on: SF-295
[16] = tested on: SK-MEL-2
[17] = tested on: SN12C
[18] = tested on: SNB-19
[19] = tested on: TK-10
[20] = tested on: UO-31

Measured: GI50

CSc1ccc(NC(=O)CCl)cc1
inactive: [1] 2.97 µM | [2] 2.43 µM | [3] 3.02 µM | [4] > 10 µM | [5] 3.33 µM | [6] 3.65 µM | [7] 3.1 µM | [8] 5.15 µM | [9] 3.4 µM | [10] 2.41 µM | [11] 1.95 µM | [12] 3.24 µM | [13] 3.75 µM | [14] 3.51 µM | [15] 2.58 µM | [16] 1.81 µM | [17] 6.82 µM | [18] 4.86 µM | [19] > 10 µM | [20] 2.23 µM

CCCn1c(C23CC4CC(CC(C4)C2)C3)nc2ccc(Cl)cc2c1=O
inactive: [1] 30 µM | [2] 45.5 µM | [3] 37.2 µM | [4] 23.9 µM | [5] 21.6 µM | [6] 24.9 µM | [7] 63.2 µM | [8] 36.6 µM | [9] 33.7 µM | [10] 36.1 µM | [11] 47.2 µM | [12] 21.9 µM | [13] 49 µM | [14] 44.4 µM | [15] 46.6 µM | [16] 47.1 µM | [17] 35.2 µM | [18] 49 µM | [19] 48.2 µM | [20] 15.6 µM

O=C1c2ccccc2CN1c1ccc(OCCN2CCCCC2)cc1
inactive: [1] > 10 µM | [2] > 10 µM | [3] > 10 µM | [4] > 10 µM | [5] > 10 µM | [6] > 10 µM | [7] > 10 µM | [8] > 10 µM | [9] > 10 µM | [10] > 10 µM | [11] > 10 µM | [12] > 10 µM | [13] > 10 µM | [14] > 10 µM | [15] > 10 µM | [16] > 10 µM | [17] > 10 µM | [18] > 10 µM | [19] > 10 µM | [20] > 10 µM

CC(C)(C)[Si](C)(C)OC1CCOC1(O)c1ccccn1 (stereo not given)
inactive: [1] > 100 µM | [2] 88.3 µM | [3] > 100 µM | [4] > 100 µM | [5] 32 µM | [6] > 100 µM | [7] > 100 µM | [8] > 100 µM | [9] 57.3 µM | [10] > 100 µM | [11] > 100 µM | [12] > 100 µM | [13] > 100 µM | [14] > 100 µM | [15] > 100 µM | [16] > 100 µM | [17] > 100 µM | [18] > 100 µM | [19] > 100 µM | [20] > 100 µM

C[C@]12C=CC(=O)C=C1CC[C@@H]1[C@@H]2C(=O)C[C@@]2(C)[C@H]1CC[C@]2(O)C(=O)CO [PREDNISONE]
inactive: [1] > 100 µM | [2] > 100 µM | [3] > 100 µM | [4] > 100 µM | [5] > 100 µM | [6] > 100 µM | [7] > 100 µM | [8] > 100 µM | [9] > 100 µM | [10] > 100 µM | [11] > 100 µM | [12] > 100 µM | [13] > 100 µM | [14] > 100 µM | [15] > 100 µM | [16] > 100 µM | [17] > 100 µM | [18] > 100 µM | [19] > 100 µM | [20] > 100 µM
